pIC50: −log10 of the molar value.

Experimental findings from patent US8372854B2, “Pyrrolo[2,3-D]pyrimidine compounds” (Pfizer Inc., priority 2009, dated 2013) are described below.

Assay type in all cases: biochemical
The target of one test is T1, JAK3 (Homo sapiens, UniProt P52333).
T1 construct: purchased Invitrogen Corporation, Madison, Wis; PV3855
T1 sequence (P52333 1-1124): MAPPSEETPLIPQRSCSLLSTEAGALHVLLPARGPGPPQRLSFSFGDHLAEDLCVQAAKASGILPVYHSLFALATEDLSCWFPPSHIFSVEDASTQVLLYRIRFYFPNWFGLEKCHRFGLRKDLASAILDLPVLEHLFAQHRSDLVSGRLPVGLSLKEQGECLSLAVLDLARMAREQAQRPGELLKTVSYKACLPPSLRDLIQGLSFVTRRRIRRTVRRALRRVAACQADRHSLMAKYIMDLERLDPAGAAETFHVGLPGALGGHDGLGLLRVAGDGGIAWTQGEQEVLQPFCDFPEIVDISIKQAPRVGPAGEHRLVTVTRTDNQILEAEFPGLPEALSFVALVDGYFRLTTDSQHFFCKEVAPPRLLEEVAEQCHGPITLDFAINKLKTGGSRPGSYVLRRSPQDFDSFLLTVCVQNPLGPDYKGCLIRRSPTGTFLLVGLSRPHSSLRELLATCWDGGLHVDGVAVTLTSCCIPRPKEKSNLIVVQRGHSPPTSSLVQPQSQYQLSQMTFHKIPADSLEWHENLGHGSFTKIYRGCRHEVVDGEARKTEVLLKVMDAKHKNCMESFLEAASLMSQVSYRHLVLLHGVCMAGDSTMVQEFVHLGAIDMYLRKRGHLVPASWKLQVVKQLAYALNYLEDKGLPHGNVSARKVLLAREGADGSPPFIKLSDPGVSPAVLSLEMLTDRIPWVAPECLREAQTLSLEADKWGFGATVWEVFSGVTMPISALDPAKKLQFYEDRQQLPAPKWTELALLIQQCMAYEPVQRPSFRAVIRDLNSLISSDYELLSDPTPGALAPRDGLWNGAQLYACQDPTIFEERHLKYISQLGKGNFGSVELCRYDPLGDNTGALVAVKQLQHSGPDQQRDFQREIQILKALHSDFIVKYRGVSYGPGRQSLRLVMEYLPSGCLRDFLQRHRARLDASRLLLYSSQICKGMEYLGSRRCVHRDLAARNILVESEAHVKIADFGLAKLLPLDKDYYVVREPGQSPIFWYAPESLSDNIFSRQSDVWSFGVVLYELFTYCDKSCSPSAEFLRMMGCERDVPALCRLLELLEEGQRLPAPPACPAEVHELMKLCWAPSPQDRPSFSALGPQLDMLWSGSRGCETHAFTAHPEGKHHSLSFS
As to the kind of experiment: JAK enzymatic assay (peptide mobility shift), JAK3. As to conditions: recombinant JAK3 1 nM, ATP 4 μM, 1 μM JAKtide peptide, 90 minutes.

The target of a further test is T2, JAK2 (Homo sapiens, UniProt O60674).
T2 construct: purchased Invitrogen Corporation, Madison, Wis; PV4210
T2 sequence (O60674 whole entry): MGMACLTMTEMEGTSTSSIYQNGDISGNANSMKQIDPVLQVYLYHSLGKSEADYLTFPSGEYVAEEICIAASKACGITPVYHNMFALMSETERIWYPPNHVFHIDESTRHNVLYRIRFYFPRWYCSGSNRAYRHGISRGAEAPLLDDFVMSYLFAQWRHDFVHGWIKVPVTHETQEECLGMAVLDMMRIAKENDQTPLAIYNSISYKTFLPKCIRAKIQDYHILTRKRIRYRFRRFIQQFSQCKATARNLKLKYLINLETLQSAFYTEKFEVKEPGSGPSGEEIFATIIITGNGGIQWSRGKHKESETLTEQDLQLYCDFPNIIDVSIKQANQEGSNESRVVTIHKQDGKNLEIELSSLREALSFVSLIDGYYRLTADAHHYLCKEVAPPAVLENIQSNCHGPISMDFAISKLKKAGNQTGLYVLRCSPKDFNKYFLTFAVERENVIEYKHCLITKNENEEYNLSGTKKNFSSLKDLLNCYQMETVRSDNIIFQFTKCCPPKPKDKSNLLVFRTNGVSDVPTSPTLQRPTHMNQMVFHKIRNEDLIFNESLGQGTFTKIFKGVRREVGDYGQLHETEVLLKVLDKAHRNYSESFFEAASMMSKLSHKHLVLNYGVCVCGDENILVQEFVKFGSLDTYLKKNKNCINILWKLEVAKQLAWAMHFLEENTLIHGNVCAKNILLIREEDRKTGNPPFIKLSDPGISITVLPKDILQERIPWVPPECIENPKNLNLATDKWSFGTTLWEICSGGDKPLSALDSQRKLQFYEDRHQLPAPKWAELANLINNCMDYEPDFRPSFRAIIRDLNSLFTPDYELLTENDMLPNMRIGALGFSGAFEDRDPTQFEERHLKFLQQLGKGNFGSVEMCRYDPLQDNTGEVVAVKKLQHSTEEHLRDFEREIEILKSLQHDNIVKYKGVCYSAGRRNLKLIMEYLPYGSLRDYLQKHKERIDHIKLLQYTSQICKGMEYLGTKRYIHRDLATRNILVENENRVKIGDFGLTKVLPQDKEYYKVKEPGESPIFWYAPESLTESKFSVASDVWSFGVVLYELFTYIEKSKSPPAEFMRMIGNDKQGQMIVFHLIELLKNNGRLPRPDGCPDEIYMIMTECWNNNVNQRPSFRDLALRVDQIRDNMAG
As to the kind of experiment: JAK enzymatic assay (peptide mobility shift), JAK2. As to conditions: recombinant JAK2 2 nM, ATP 4 μM, 1 μM JAKtide peptide, 150 minutes. Summed up: (§1)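 Caliper mobility-shift assay of peptide phosphorylation (1 μM peptide) in pH 7.4 HEPES with MgCl2, BSA, Tween-20 and 2% DMSO. JAK1 used 20 nM enzyme, 40 μM ATP, IRS-1 peptide, 240 min; JAK2 used 2 nM, 4 μM ATP, JAKtide, 150 min; JAK3 used 1 nM, 4 μM ATP, JAKtide, 90 min. IC50s came from 11-point 4-parameter fits.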

The next test concerns the target T3, JAK1 (Homo sapiens, UniProt P23458).
T3 construct: purchased Invitrogen Corporation, Madison, Wis; PV4775
Kind of test: JAK enzymatic assay (peptide mobility shift), JAK1. As to conditions: recombinant JAK1 20 nM, ATP 40 μM, 1 μM IRS-1 peptide, 240 minutes. Summed up:
as §1

T3 sequence (P23458 whole entry): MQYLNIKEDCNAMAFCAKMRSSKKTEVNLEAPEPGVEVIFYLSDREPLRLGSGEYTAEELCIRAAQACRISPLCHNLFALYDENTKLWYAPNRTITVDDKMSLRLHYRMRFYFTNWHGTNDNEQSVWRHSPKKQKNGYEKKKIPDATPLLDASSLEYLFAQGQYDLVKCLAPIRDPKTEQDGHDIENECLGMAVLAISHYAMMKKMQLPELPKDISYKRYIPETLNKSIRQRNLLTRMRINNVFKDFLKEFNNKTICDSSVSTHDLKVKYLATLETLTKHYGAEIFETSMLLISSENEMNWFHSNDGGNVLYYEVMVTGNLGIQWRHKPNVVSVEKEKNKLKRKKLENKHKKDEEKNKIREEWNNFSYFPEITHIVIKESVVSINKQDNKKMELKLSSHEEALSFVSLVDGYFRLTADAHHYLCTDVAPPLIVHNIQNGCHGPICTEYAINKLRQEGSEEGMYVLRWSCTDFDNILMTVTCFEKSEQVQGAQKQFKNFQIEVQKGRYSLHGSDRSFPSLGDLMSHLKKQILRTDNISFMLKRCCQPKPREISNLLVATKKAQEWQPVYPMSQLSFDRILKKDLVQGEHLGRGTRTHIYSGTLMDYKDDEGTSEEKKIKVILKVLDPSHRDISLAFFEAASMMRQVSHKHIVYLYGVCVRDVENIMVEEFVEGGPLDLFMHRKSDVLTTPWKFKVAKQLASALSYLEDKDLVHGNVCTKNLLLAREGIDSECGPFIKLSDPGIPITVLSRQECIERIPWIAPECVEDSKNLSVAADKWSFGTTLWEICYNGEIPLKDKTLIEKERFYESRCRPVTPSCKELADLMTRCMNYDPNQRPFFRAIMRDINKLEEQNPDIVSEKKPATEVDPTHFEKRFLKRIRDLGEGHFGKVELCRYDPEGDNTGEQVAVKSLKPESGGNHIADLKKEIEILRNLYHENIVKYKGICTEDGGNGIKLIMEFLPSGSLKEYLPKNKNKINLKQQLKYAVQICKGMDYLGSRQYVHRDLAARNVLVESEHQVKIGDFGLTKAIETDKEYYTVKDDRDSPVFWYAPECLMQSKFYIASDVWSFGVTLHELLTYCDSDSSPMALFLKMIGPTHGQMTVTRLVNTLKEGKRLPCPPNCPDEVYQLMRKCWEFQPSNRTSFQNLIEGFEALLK

Take `CN(c1ncnc2[nH]ccc12)[C@H]1CC[C@H](CS(=O)(=O)NC2(Cc3ccccc3)CCC2)CC1` [Example 44, N-(1-benzylcyclobutyl)-1-{trans-4-[methyl(7H-pyrrolo-[2,3-d]pyrimidin-4-yl)amino]-cyclohexyl}methane-sulfonamide]: the negative logarithm of the IC50 (pIC50) (in general, −log10 of the IC50, conventionally taken in molar units) on JAK3 is 6.19; at JAK2 it was 6.95; at JAK1, 7.82.

Turning to `Cc1cnc(CNS(=O)(=O)C[C@H]2CC[C@H](N(C)c3ncnc4[nH]ccc34)CC2)cn1` [Example 45, N-[(5-methylpyrazin-2-yl)methyl]-1-{trans-4-[methyl(7H-pyrrolo[2,3-d]-pyrimidin-4-yl)amino]cyclohexyl}-methanesulfonamide], the negative logarithm of the IC50 (pIC50) was 6.31 at JAK3, 7.30 on JAK2 and 7.82 at JAK1.

Regarding `CN(c1ncnc2[nH]ccc12)[C@H]1CC[C@H](CS(=O)(=O)N[C@@H]2CCC[C@@H]2c2ccc(F)cc2)CC1` [Example 46, N-[(1R,2R)-2-(4-fluoro-phenyl)cyclopentyl]-1-{trans-4-[methyl(7H-pyrrolo[2,3-d]pyrimidin-4-yl)amino]cyclohexyl}-methanesulfonamide], the negative logarithm of the IC50 (pIC50) is 6.45 at JAK3, 7.74 at JAK2 and 7.81 at JAK1.

Turning to `CN(c1ncnc2[nH]ccc12)[C@H]1CC[C@H](CS(=O)(=O)NC[C@H]2CCCO2)CC1` [Example 47, 1-{trans-4-[methyl(7H-pyrrolo[2,3-d]pyrimidin-4-yl)amino]cyclohexyl}-N-[(2R)-tetrahydrofuran-2-ylmethyl]-methanesulfonamide], the pIC50 on JAK3 is 5.97; at JAK2, 6.76; on JAK1, 7.79.

`CN(c1ncnc2[nH]ccc12)[C@H]1CC[C@H](CS(=O)(=O)NCCC(F)=C(F)F)CC1` [Example 48, 1-{trans-4-[methyl(7H-pyrrolo[2,3-d]pyrimidin-4-yl)amino]cyclohexyl}-N-(3,4,4-trifluorobut-3-en-1-yl)methanesulfonamide]: the pIC50 was 6.57 at JAK3, 7.18 at JAK2 and 7.71 at JAK1.

As for `C[C@H](O)CNS(=O)(=O)C[C@H]1CC[C@H](N(C)c2ncnc3[nH]ccc23)CC1` [Example 49, N-[(2S)-2-hydroxypropyl]-1-{trans-4-[methyl(7H-pyrrolo[2,3-d]pyrimidin-4-yl)amino]cyclohexyl}-methanesulfonamide], the pIC50 at JAK3 was 6.28; on JAK2, 7.19; on JAK1 it was 7.67.

Regarding `Cc1cccc(CCNS(=O)(=O)C[C@H]2CC[C@H](N(C)c3ncnc4[nH]ccc34)CC2)n1` [Example 50, N-[2-(6-methylpyridin-2-yl)ethyl]-1-{trans-4-[methyl(7H-pyrrolo[2,3-d]-pyrimidin-4-yl)amino]-cyclohexyl}-methanesulfonamide], the values for the negative logarithm of the IC50 (pIC50) at JAK3, at JAK2 and on JAK1 were 6.20, 7.09 and 7.67, respectively.

Take `Cc1cc(C)nc(CNS(=O)(=O)C[C@H]2CC[C@H](N(C)c3ncnc4[nH]ccc34)CC2)n1` [Example 51, N-[(4,6-dimethylpyrimidin-2-yl)methyl]-1-{trans-4-[methyl(7H-pyrrolo[2,3-d]-pyrimidin-4-yl)amino]cyclohexyl}-methanesulfonamide]: the pIC50 on JAK3 is 6.63; on JAK2, 7.69; on JAK1, 7.63.

As to `Cc1nn(C)cc1CNS(=O)(=O)C[C@H]1CC[C@H](N(C)c2ncnc3[nH]ccc23)CC1` [Example 52, N-[(1,3-dimethyl-1H-pyrazol-4-yl)methyl]-1-{trans-4-[methyl(7H-pyrrolo[2,3-d]pyrimidin-4-yl)amino]cyclohexyl}-methanesulfonamide], the pIC50 was 6.12 at JAK3, 6.97 at JAK2 and 7.62 on JAK1.

Consider `CN(c1ncnc2[nH]ccc12)[C@H]1CC[C@@H](CS(=O)(=O)NCCc2ccccc2)CC1` [Example 53, 1-{cis-4-[methyl(7H-pyrrolo[2,3-d]pyrimidin-4-yl)amino]cyclohexyl}-N-(2-phenylethyl)-methanesulfonamide], for which the pIC50 was 6.92 on JAK3, 7.46 on JAK2 and 7.94 at JAK1.

Regarding `CN(c1ncnc2[nH]ccc12)[C@H]1CC[C@@H](CS(=O)(=O)NCc2ccccc2)CC1` [Example 54, N-benzyl-1-{cis-4-[methyl(7H-pyrrolo[2,3-d]pyrimidin-4-yl)amino]cyclohexyl}-methanesulfonamide], the pIC50 on JAK3 was 6.79; at JAK2 it was 7.27; on JAK1 it was 7.71.

Consider `CN(c1ncnc2[nH]ccc12)[C@H]1CC[C@@H](CS(=O)(=O)NCC2CC2)CC1` [Example 55, N-(cyclopropylmethyl)-1-{cis-4-[methyl(7H-pyrrolo[2,3-d]pyrimidin-4-yl)amino]cyclohexyl}-methanesulfonamide], for which the negative logarithm of the IC50 (pIC50) was 6.70 on JAK3, 7.47 at JAK2 and 7.94 on JAK1.

Regarding `COc1ccc(CNS(=O)(=O)C[C@H]2CC[C@@H](N(C)c3ncnc4[nH]ccc34)CC2)cc1` [Example 56, N-(4-methoxybenzyl)-1-{cis-4-[methyl(7H-pyrrolo[2,3-d]pyrimidin-4-yl)amino]cyclohexyl}-methanesulfonamide], the pIC50 was 6.94 at JAK3, 7.44 on JAK2 and 7.97 on JAK1.

With `CN(C)S(=O)(=O)C[C@H]1CC[C@H](N(C)c2ncnc3[nH]ccc23)CC1` [Example 57, N,N-dimethyl((1r,4r)-4-(methyl(7H-pyrrolo[2,3-d]pyrimidin-4-yl)amino)-cyclohexyl)-methanesulfonamide], the negative logarithm of the IC50 (pIC50) is 6.76 at JAK3, 7.56 at JAK2 and 8.13 at JAK1.
